Test results taken from paper PMC5478271, “Chemical structure-guided design of dynapyrazoles, cell-permeable dynein inhibitors with a unique mode of action” (eLife, 2017).
“And” between values parts separate entries of the source, which are not always exact repeats. Identical values can stand only once.

Biological target: T1, AAA3 Walker A-mutant His-dynein 1 (K2601A) (Homo sapiens, UniProt Q14204, K2601A)
T1 construct: (wild-type, K1912A, K2601A, AA 1320–4646, uniprot: Q14204); made in house; host or cells: Sf9 insect cells (baculovirus)
Assay: ATPase activity of AAA3 Walker A-mutant (K2601A) His-dynein 1
Type: biochemical
Settings: for IC50: 2% DMSO, read-out: IC50, inhibition of the basal ATPase activity of the AAA3 Walker A-mutant His-dynein 1
Method: ATPase assays using recombinant Dynein 1 (wild-type and mutants) were performed in a buffer containing 25 mM PIPES pH7.0, 30 mM KCl, 1 mM EGTA, 5 mM MgCl2, 0.01% triton X-100, 1 mM DTT, and 20–30 µM taxol (if microtubules were present). For typical conditions, enzyme was incubated with varying concentrations of inhibitor in buffer containing 2% DMSO for 10 min in a volume of 10 μL. When microtubules were present, they were polymerized by stepwise addition of taxol and high concentrations of DMSO (30% final during polymerization reactions), and re-suspended following centrifugation in ATPase buffer to a concentration up to threefold above the final concentration used in the reaction (bovine brain tubulin, no fluoresecent label). For microtubule-stimulated reactions in dose-response format, reactions were assembled by 1:1:1 mixture of 3x enzyme stock, 3x compound stock (in buffer with 6% DMSO), and 3x microtubule stock to each well. For microtubule-stimulated ATPase assays at tubulin concentrations > 2.5 µM, enzyme stock was supplemented with compound stock in pure DMSO (resulting in an intermediate DMSO concentration of 6%), and then the microtubule stock was added. Final enzyme concentrations were 30–100 nM for GFP-dynein 1, wild-type 6x-His-dynein 1, and K2601A 6x-His-dynein 1 and up to 500 nM for K1912A 6x-His-dynein 1. The final DMSO concentration was 2% in all ATPase assays performed.
Assembled reaction mixtures (including enzyme, compound, and microtubules, if present) were incubated for 10 min before addition of ATP. Each ATPase reaction was initiated by addition of 2 μL of a 6x ATP stock containing trace γ-^32P ATP (3 µCi/mmol, 3 µCi/mL, Perkin Elmer) and allowed to proceed for a time predetermined to lie within the linear range of the assay (20–30 min). For typical conditions, ATP was used at a final concentration of 1 mM. Reactions were quenched by the addition of 12 µL 100 mM EDTA, and 2 μL of each quenched reaction was spotted onto PEI-cellulose TLC plates (Millipore). Plates were developed in a glass chamber with a freshly prepared solution of 150 mM formic acid and 150 mM LiCl, dried, exposed to a storage phosphor tray (GE Healthsciences), and scanned on a Typhoon imaging system (GE Healthsciences). The fraction of γ-phosphate hydrolyzed in each condition was quantified using FIJI.
Curve fitting: Where dose-response experiments are fit and IC50values given, these are obtained as follows: Individual experiments are treated as separate. The data are fit to a sigmoidal dose-response curve of the form (Y=Bottom + (Top-Bottom)/(1 + 10^((LogIC50-X)*HillSlope)). All variables were allowed to float freely with the exception of the variable denoted ‘bottom’, which was constrained to be >0. The separate IC50 values obtained from fits to each individual experiment's dataset were averaged together and presented as a mean with range (Figure 3G and H) or standard deviation (Figures 3I, 5D, 6E and K).

T1 sequence (Q14204 1320-4646 K2601A): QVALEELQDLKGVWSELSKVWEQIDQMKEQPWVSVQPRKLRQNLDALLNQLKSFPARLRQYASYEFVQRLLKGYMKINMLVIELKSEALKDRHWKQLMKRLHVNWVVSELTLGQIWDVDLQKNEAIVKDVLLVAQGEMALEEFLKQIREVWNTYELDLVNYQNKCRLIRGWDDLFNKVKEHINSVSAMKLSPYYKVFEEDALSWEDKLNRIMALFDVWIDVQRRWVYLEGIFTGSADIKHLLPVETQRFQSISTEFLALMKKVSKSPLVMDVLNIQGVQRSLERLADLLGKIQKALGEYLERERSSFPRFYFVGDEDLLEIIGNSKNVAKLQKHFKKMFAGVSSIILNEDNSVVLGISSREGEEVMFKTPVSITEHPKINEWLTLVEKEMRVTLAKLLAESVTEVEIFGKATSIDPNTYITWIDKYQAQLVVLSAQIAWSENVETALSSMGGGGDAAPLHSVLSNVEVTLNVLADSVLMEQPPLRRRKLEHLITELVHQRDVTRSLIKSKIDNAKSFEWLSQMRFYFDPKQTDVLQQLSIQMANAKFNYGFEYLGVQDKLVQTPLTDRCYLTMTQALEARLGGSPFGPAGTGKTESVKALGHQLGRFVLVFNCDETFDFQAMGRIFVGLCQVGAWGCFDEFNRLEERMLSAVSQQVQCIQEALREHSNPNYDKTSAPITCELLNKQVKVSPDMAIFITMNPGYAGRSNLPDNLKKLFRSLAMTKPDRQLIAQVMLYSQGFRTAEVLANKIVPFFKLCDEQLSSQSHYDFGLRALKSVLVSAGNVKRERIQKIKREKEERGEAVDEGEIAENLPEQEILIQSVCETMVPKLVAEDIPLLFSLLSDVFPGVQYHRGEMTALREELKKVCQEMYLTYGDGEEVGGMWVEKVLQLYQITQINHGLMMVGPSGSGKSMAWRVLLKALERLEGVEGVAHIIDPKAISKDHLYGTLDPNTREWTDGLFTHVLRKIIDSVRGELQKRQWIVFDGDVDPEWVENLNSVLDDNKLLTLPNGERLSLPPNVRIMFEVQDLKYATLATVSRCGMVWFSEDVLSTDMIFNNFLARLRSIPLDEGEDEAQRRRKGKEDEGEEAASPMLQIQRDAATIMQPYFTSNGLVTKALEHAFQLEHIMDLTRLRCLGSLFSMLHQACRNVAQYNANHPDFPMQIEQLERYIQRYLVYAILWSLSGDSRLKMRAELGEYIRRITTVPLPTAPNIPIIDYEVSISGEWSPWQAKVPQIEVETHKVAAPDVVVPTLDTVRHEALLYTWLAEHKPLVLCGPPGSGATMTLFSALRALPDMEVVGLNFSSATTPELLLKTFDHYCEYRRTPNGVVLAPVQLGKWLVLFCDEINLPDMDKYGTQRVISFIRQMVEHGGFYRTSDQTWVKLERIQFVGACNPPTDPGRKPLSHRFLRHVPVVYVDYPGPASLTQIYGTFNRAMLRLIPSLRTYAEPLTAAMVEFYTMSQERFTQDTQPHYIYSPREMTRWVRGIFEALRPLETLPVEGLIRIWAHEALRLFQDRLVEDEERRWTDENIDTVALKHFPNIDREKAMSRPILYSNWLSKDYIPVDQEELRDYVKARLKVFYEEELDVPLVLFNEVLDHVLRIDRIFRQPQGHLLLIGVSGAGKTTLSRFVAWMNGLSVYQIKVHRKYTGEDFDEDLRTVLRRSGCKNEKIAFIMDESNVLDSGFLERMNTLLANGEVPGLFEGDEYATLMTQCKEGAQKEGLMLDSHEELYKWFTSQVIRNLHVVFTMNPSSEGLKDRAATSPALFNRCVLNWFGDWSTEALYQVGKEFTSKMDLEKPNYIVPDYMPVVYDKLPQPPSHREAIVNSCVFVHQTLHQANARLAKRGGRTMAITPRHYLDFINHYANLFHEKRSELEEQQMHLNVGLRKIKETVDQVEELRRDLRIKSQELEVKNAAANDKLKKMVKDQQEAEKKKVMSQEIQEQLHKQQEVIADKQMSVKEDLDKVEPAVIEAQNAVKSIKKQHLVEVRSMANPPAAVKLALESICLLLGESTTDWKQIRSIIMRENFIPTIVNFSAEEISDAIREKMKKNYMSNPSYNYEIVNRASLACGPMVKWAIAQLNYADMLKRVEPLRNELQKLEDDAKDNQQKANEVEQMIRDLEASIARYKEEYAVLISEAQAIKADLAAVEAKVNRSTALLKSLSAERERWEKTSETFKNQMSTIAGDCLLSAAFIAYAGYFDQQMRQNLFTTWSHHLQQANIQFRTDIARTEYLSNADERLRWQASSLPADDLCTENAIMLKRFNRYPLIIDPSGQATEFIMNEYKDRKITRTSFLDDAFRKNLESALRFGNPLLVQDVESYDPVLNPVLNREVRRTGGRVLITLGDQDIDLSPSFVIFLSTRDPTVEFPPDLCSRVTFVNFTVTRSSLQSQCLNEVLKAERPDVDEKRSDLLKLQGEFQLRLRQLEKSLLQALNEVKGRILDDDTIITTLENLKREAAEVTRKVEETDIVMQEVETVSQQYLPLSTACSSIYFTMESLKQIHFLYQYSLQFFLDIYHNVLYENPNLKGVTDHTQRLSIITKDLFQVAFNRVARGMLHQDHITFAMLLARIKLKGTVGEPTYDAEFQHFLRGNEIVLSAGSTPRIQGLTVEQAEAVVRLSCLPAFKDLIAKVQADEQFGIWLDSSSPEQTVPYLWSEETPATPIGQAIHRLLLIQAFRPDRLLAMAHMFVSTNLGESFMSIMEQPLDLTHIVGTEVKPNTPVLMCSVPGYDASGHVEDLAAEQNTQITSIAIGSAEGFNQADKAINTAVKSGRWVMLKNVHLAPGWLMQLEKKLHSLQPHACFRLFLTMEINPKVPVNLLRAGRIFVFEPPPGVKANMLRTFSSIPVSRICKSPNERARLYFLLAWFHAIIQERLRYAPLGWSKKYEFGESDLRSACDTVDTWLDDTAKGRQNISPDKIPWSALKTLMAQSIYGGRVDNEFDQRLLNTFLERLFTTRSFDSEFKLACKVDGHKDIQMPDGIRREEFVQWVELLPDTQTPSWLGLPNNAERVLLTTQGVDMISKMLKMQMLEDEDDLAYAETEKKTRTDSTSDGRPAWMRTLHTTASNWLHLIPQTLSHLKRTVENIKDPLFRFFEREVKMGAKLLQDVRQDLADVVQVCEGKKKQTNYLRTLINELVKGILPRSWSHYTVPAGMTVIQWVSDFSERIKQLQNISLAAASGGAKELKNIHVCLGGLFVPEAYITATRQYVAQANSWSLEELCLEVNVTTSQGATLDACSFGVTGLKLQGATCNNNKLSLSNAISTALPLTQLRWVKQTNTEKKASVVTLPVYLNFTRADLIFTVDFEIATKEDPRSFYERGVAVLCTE

Compound | Reduction of AAA3 mutant dynein's ATPase activity across the range of microtubule concentrations tested (30 µM compound, 1 mM MgATP) | inhibition at 30 µM (30 µM compound, no microtubules, read-out: Inhibition of basal activity of the AAA3 mutant) [%] | IC50 (1 mM MgATP) | Residual ATPase activity of AAA3 mutant at the highest concentrations tested (basal activity, dose-response)
N#Cc1c(C2(c3ccc(Cl)cc3)CC2)nn2c1[nH]c(=O)c1cc(I)ccc12 [Compound 8, 2-[1-(4-chlorophenyl)cyclopropyl]-7-iodo-5-oxo-4H-pyrazolo[1,5-a]quinazoline-3-carbonitrile] | 70–80% | ~70 | 5.5 ± 1.6 µM | ~ 0.2 s^−1
N#C/C(C(=O)c1ccc(Cl)cc1Cl)=C1\NC(=O)c2ccc(Cl)cc2N1 [ciliobrevin D, reference compound] |  |  | 38.4 µM and 38 µM | 
